Measured values as given in patent publication US6355799B1, “Substituted benzene compounds, process for their preparation, and herbicidal and defoliant compositions containing them” (ISK Americas Incorporated, priority 1997, dated 2002).

Experiments:
Assay type in all cases: in vivo
[1] = test system: sicklepod (Cassia obtusifolia, CASOB); test: Pre-emerge test, greenhouse herbicide activity screening; conditions: pre-emerge, phytotoxicity rating 0-100 at 14 days after application
Summary of the method: (§1)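 Rating: 0–100 visual injury, 14 DAA. Application: acetone, 187 l/ha, 15–1000 g ai/ha, flat-fan track sprayer with nozzle 40–45 cm above soil or canopy. Post-emerge runs used 0.25% v/v surfactant on 2–3 leaf plants.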

[2] = test system: green foxtail (Setaria viridis, SETVI); test: as above; conditions: pre-emerge, phytotoxicity rating 0-100 at 14 days after application
Summary of the method: as §1

[3] = test system: johnsongrass (Sorghum halepense, SORHA); test: as above; conditions: pre-emerge, phytotoxicity rating 0-100 at 14 days after application
Summary of the method: as §1

[4] = test system: velvetleaf (Abutilon theophrasti, ABUTH); test: as above; conditions: pre-emerge, phytotoxicity rating 0-100 at 14 days after application
Summary of the method: as §1

[5] = test system: large crabgrass (Digitaria sanguinalis, DIGSA); test: as above; conditions: pre-emerge, phytotoxicity rating 0-100 at 14 days after application
Summary of the method: as §1

[6] = test system: lambsquarters (Chenopodium album, CHEAL); test: as above; conditions: pre-emerge, phytotoxicity rating 0-100 at 14 days after application
Summary of the method: as §1

[7] = test system: barnyardgrass (Echinochloa crus-galli, ECHCG); test: as above; conditions: pre-emerge, phytotoxicity rating 0-100 at 14 days after application
Summary of the method: as §1

[8] = test system: ivyleaf morningglory (Ipomoea hederacea, IPOHE); test: as above; conditions: pre-emerge, phytotoxicity rating 0-100 at 14 days after application
Summary of the method: as §1

[9] = test system: redroot pigweed (Amaranthus retroflexus, AMARE); test: Post-emerge test, greenhouse herbicide activity screening; conditions: post-emerge, phytotoxicity rating 0-100 at 14 days after application
Summary of the method: (§2)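 Fourteen days after spraying, crop and weed injury was graded visually from 0, no effect, to 100, every plant dead. Test substances were dissolved in acetone and applied at 15–1000 g ai/ha with a flat-fan nozzle. Application was either pre-emergence, one day after sowing, or post-emergence at the 2–3 leaf stage.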

[10] = test system: sicklepod (Cassia obtusifolia, CASOB); test: as above; conditions: post-emerge, phytotoxicity rating 0-100 at 14 days after application
Summary of the method: as §2

[11] = test system: green foxtail (Setaria viridis, SETVI); test: as above; conditions: post-emerge, phytotoxicity rating 0-100 at 14 days after application
Summary of the method: as §2

[12] = test system: johnsongrass (Sorghum halepense, SORHA); test: as above; conditions: post-emerge, phytotoxicity rating 0-100 at 14 days after application
Summary of the method: as §2

[13] = test system: velvetleaf (Abutilon theophrasti, ABUTH); test: as above; conditions: post-emerge, phytotoxicity rating 0-100 at 14 days after application
Summary of the method: as §2

[14] = test system: large crabgrass (Digitaria sanguinalis, DIGSA); test: as above; conditions: post-emerge, phytotoxicity rating 0-100 at 14 days after application
Summary of the method: as §2

[15] = test system: lambsquarters (Chenopodium album, CHEAL); test: as above; conditions: post-emerge, phytotoxicity rating 0-100 at 14 days after application
Summary of the method: as §2

[16] = test system: barnyardgrass (Echinochloa crus-galli, ECHCG); test: as above; conditions: post-emerge, phytotoxicity rating 0-100 at 14 days after application
Summary of the method: as §2

[17] = test system: ivyleaf morningglory (Ipomoea hederacea, IPOHE); test: as above; conditions: post-emerge, phytotoxicity rating 0-100 at 14 days after application
Summary of the method: as §2

[18] = test system: field corn (Zea mays L., var. Dekalb 535, CORN); test: Post-emerge test, crop safety; conditions: post-emerge, crop damage rating 0-100 at 14 days after application
Summary of the method: (§3)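 Plants grown in 10 cm pots of sandy loam mix received acetone-dissolved compounds through a moving flat-fan nozzle. Doses ranged from 15 to 1000 g ai/ha. Pre-emerge pots were seeded one day earlier, post-emerge pots 8–21 days earlier. Fourteen days on, each pot was graded 0–100 for damage.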

[19] = test system: upland rice (Oryza sp., var. Tebonnet, RICE); test: Post-emerge test, crop safety; conditions: post-emerge, crop damage rating 0-100 at 14 days after application
Summary of the method: as §3

[20] = test system: redroot pigweed (Amaranthus retroflexus, AMARE); test: Pre-emerge test, greenhouse herbicide activity screening; conditions: pre-emerge, phytotoxicity rating 0-100 at 14 days after application
Summary of the method: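 Herbicidal damage is scored 0 (none) to 100 (complete plant death) two weeks after a simulated field spray. Rates span 15–1000 g ai/ha, delivered in acetone at 187 l/ha. For post-emergence treatments, plants have 2–3 leaves and the spray carries 0.25% v/v non-ionic surfactant.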

[21] = test system: field corn (Zea mays L., var. Dekalb 535, CORN); test: Pre-emerge test, crop safety; conditions: crop damage, pre-emerge, phytotoxicity rating 0-100 at 14 days after application
Summary of the method: (§4)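 Sandy loam pots; pre-emerge: sown 1 d pre-spray, surface-watered after, then bottom-watered. Post-emerge: sown 8–21 d before, 2–3 leaf stage, + 0.25% v/v NIS, bottom-watered. Acetone, 187 l/ha track spray, 15–1000 g ai/ha. 0–100 injury score, day 14.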

[22] = test system: upland rice (Oryza sp., var. Tebonnet, RICE); test: Pre-emerge test, crop safety; conditions: crop damage, pre-emerge, phytotoxicity rating 0-100 at 14 days after application
Summary of the method: as §4

Cc1ccc(COC(=O)Nc2c(C)c(Cl)cc(F)c2-n2c(=O)cc(C(F)(F)F)n(C)c2=O)cc1 [4-60]
Pre-emerge Herbicidal Activity CASOB ([1]; rate 63 g ai/ha): 90
Pre-emerge Herbicidal Activity CASOB ([1]; rate 250 g ai/ha): 100
Pre-emerge Herbicidal Activity SETVI ([2]; rate 63 g ai/ha): 90
Pre-emerge Herbicidal Activity SETVI ([2]; rate 250 g ai/ha): 100
Pre-emerge Herbicidal Activity SORHA ([3]; rate 63 g ai/ha): 30
Pre-emerge Herbicidal Activity SORHA ([3]; rate 250 g ai/ha): 50
Pre-emerge Herbicidal Activity ABUTH ([4]; rate 63 g ai/ha): 100
Pre-emerge Herbicidal Activity ABUTH ([4]; rate 250 g ai/ha): 100
Pre-emerge Herbicidal Activity DIGSA ([5]; rate 63 g ai/ha): 100
Pre-emerge Herbicidal Activity DIGSA ([5]; rate 250 g ai/ha): 100
Pre-emerge Herbicidal Activity CHEAL ([6]; rate 63 g ai/ha): 100
Pre-emerge Herbicidal Activity CHEAL ([6]; rate 250 g ai/ha): 100
Pre-emerge Herbicidal Activity ECHCG ([7]; rate 63 g ai/ha): 40
Pre-emerge Herbicidal Activity ECHCG ([7]; rate 250 g ai/ha): 70
Pre-emerge Herbicidal Activity IPOHE ([8]; rate 63 g ai/ha): 50
Pre-emerge Herbicidal Activity IPOHE ([8]; rate 250 g ai/ha): 100
Post-emerge Herbicidal Activity AMARE ([9]; 63 g ai/ha): 100
Post-emerge Herbicidal Activity AMARE ([9]; 250 g ai/ha): 100
Post-emerge Herbicidal Activity CASOB ([10]; 63 g ai/ha): 60
Post-emerge Herbicidal Activity CASOB ([10]; 250 g ai/ha): 100
Post-emerge Herbicidal Activity SETVI ([11]; 63 g ai/ha): 65
Post-emerge Herbicidal Activity SETVI ([11]; 250 g ai/ha): 90
Post-emerge Herbicidal Activity SORHA ([12]; 63 g ai/ha): 50
Post-emerge Herbicidal Activity SORHA ([12]; 250 g ai/ha): 50
Post-emerge Herbicidal Activity ABUTH ([13]; 63 g ai/ha): 100
Post-emerge Herbicidal Activity ABUTH ([13]; 250 g ai/ha): 100
Post-emerge Herbicidal Activity DIGSA ([14]; 63 g ai/ha): 40
Post-emerge Herbicidal Activity DIGSA ([14]; 250 g ai/ha): 60
Post-emerge Herbicidal Activity CHEAL ([15]; 63 g ai/ha): 100
Post-emerge Herbicidal Activity CHEAL ([15]; 250 g ai/ha): 100
Post-emerge Herbicidal Activity ECHCG ([16]; 63 g ai/ha): 60
Post-emerge Herbicidal Activity ECHCG ([16]; 250 g ai/ha): 50
Post-emerge Herbicidal Activity IPOHE ([17]; 63 g ai/ha): 100
Post-emerge Herbicidal Activity IPOHE ([17]; 250 g ai/ha): 100
Post-emerge Herbicidal Activity CORN ([18]; 63 g ai/ha): 25
Post-emerge Herbicidal Activity CORN ([18]; 250 g ai/ha): 55
Post-emerge Herbicidal Activity RICE ([19]; 63 g ai/ha): 50
Post-emerge Herbicidal Activity RICE ([19]; 250 g ai/ha): 70
Pre-emerge Herbicidal Activity AMARE ([20]; rate 63 g ai/ha): 100
Pre-emerge Herbicidal Activity AMARE ([20]; rate 250 g ai/ha): 100
Pre-emerge Herbicidal Activity CORN ([21]; rate 63 g ai/ha): 0
Pre-emerge Herbicidal Activity CORN ([21]; rate 250 g ai/ha): 30
Pre-emerge Herbicidal Activity RICE ([22]; rate 63 g ai/ha): 60
Pre-emerge Herbicidal Activity RICE ([22]; rate 250 g ai/ha): 70
